In patent US20160346249A1 (priority 2012, published 2016):
Values joined by “and” are separate entries in the source; they are usually repeats but may differ in a detail not shown here. Identical values can stand only once.

What was measured:
[1] = In vitro metabolism in human hepatocytes; details: male, human, 4 h, 87 μM
Protocol: Cryopreserved human hepatocytes (male) that are prepared by XenoTech, LLC (Lenexa, Kans.), are thawed on the day of use and resuspended in Waymouth's incubation media. The enzymatic activity of hepatocytes is monitored using 7-ethoxycoumarin and 7-hydroxycoumarin as substrates. […] The incubations are carried out for 4 hours with 1×10^6 viable cells/ml. […] At 0 and 4 hour, cell suspensions are extracted using two volumes of ice cold methanol. After centrifugation, the extracts are stored at −20° C. until further sample processing. The solvent in the samples are dried under a stream of nitrogen, and resuspended in methanol:water (1:1) before analysis.
The extracts of the 4 hour incubation mixture are analyzed by liquid chromatography/electrospray ionization-mass spectrometry (LC/ESI-MS) in the positive and negative ion modes to screen for possible metabolites. HPLC Methods 1 and 2 are used to find potential metabolites, and the HPLC and mass spectrometry systems are described in Table 56. The same instrumentation and methods in HPLC Method 1 are used in HPLC Method 2 with the exception that the mobile phases and gradient are changed to 0.4% HCOOH in H2O for mobile A and CH3OH for mobile phase B. The mass spectrometer is LCQ™ Ion Trap Mass Spectrometer and is in either the positive or negative electrospray mode with the ion spray set at 4.5 kV. The capillary temperature is 250° C., the nitrogen sheath gas flow rate is ˜80 unit, the auxiliary nitrogen gas flow rate is 20 unit, and the collision gas is helium.

[2] = Single dose 300 mg / 450 mg pharmacokinetic, safety and tolerability study in healthy male and female subjects; details: for Cmax / half-life / Tmax / AUC(0-t) / concentration at 0 h / concentration at 0.5 h / concentration at 1 h / concentration at 2 h / concentration at 3 h / concentration at 4 h / concentration at 6 h / concentration at 8 h / concentration at 10 h / concentration at 12 h / concentration at 18 h / concentration at 24 h / concentration at […]: human, plasma
Text: Fourteen subjects, divided equally between males and females, were enrolled in the study and randomized between test article (5/sex) and placebo (2/sex). […] All subjects met the inclusion and exclusion criteria for entry into the study as detailed in the protocol and signed an informed consent form.
The subjects were confined to the clinical study site from Day −1 to the morning of Day 2, when they underwent a brief physical examination, clinical laboratory tests, and a physician visit before they were discharged. On Day 7, they reported to the clinical site again and were confined to the site until the morning of Day 9. At that time, they underwent a complete physical examination, clinical laboratory tests, and a physician's visit before they were discharged from the study. All subjects were fasted overnight on Days −1 and 7 from approximately 22:00 to approximately 4 hours post-dose on Days 1 and 8, at which time they received a standard lunch.
Subjects that received the placebo (2/sex) ingested six identical looking capsules with no drug. […] Capsules on both days were ingested with 240 mL water. […] Samples were collected into lithium heparin-containing Vacutainers® and centrifuged at approximately 3000 rpm to obtain the plasma fraction. The plasma was split into two polypropylene tubes and stored at −20° C. […] The urine volumes were recorded and an aliquot was stored for drug concentration measurements.
Validated LC/MS/MS assays were used for analyses; the assay range for both analytes in plasma and urine were 5.00 to 2000 ng/mL.
Plasma concentration-time data for each subject were analyzed with WinNonlin, version 4.1 (Pharsight Corporation, Mountain View, Calif.) using a non-compartmental model. […] Plasma concentrations listed as not detected (ND) or below the lower limit of quantitation (LLOQ) were set to zero. The values of Cmax and Tmax were the observed values for each subject. AUC0-t was determined using the linear trapezoidal rule whenever the concentration data were increasing and the logarithmic trapezoidal rule any time that the concentration data were decreasing. The apparent λz was calculated as the negative slope of the log-linear terminal portion of the blood concentration-time curve using linear regression. To allow for accurate calculation of λz, a minimum of three observations, selected by WinNonlin, was used. The t½ was calculated as ln 2/λz. AUC0-t was extrapolated to infinity (AUC0-∞) as follows: AUC0-∞=AUC0-t+Clast/λz where Clast is the last quantifiable concentration. The apparent oral clearance (CL/F) was calculated as Dose/AUC0-∞. The apparent oral volume of distribution (Vz/F) was calculated as Dose/λz×AUC0-∞. The mean residence time from time zero to infinity (MRT0-∞) was calculated as AUMC0-∞/AUC0-∞.

Compound: O=C1NCC2(c3ccc(Cl)c(Cl)c3)CC12 (stereo not shown) [EB-10101, 5-(3,4-dichloro-phenyl)-3-aza-bicyclo[3.1.0]hexan-2-one]
- share of the metabolites formed [1]: about 63%
- AUC24-∞ as share of total exposure ([2]; 300 mg): 38%
- concentration at 24 hr as % of Cmax ([2]; 300 mg): 50%
- ingested dose in urine as lactam (0-24 hr) ([2]; 300 mg): 0.075%
- AUC24-∞ as share of total exposure ([2]; 450 mg): 54%
- concentration at 24 hr as % of Cmax ([2]; 450 mg): 65%
- ingested dose in urine as lactam (0-24 hr) ([2]; 450 mg): 0.067%
- Cmax ([2]; both, oral, 300 mg): 2030 ng/mL
- half-life ([2]; both, oral, 300 mg, harmonic mean of half-life of lactam): 14.3 h
- Cmax ([2]; both, oral, 450 mg): 2950 ng/mL
- Tmax ([2]; both, oral, 450 mg): 7.8 to 9 h
- half-life ([2]; both, oral, 450 mg, harmonic mean of half-life of lactam): 19.8 h
- AUC(0-t) ([2]; both, po, 300 mg): 33300 ng·h/mL
- Cmax ([2]; both, po, 300 mg): 2030 ng/mL
- Tmax ([2]; both, po, 300 mg): 7.8 h
- concentration at 0 h ([2]; both, po, 300 mg): 0 ng/mL
- concentration at 0.5 h ([2]; both, po, 300 mg): 42.8 ng/mL
- concentration at 1 h ([2]; both, po, 300 mg): 296 ng/mL
- concentration at 2 h ([2]; both, po, 300 mg): 900 ng/mL
- concentration at 3 h ([2]; both, po, 300 mg): 1410 ng/mL
- concentration at 4 h ([2]; both, po, 300 mg): 1540 ng/mL
- concentration at 6 h ([2]; both, po, 300 mg): 1690 ng/mL
- concentration at 8 h ([2]; both, po, 300 mg): 1900 ng/mL
- concentration at 10 h ([2]; both, po, 300 mg): 1830 ng/mL
- concentration at 12 h ([2]; both, po, 300 mg): 1580 ng/mL
- concentration at 18 h ([2]; both, po, 300 mg): 1390 ng/mL
- concentration at 24 h ([2]; both, po, 300 mg): 1010 ng/mL
- concentration at […] ([2]; both, po, 300 mg): 1.52 ng/mL and 175 ng/mL and 473 ng/mL and 589 ng/mL
- half-life ([2]; both, po, 300 mg, t½ (Harmonic mean), single oral 300 mg DOV 21,947 HCl IR, N = 10): 14.3 h
- half-life ([2]; both, po, 300 mg, t½, single oral 300 mg DOV 21,947 HCl IR, arithmetic mean, N = 10): 15.4 h
- AUC(0-t) ([2]; both, po, 450 mg): 50700 ng·h/mL
- Cmax ([2]; both, po, 450 mg): 2950 ng/mL
- Tmax ([2]; both, po, 450 mg): 9 h
- concentration at 0 h ([2]; both, po, 450 mg): 0 ng/mL
- concentration at 0.5 h ([2]; both, po, 450 mg): 71 ng/mL
- concentration at 1 h ([2]; both, po, 450 mg): 337 ng/mL
- concentration at 2 h ([2]; both, po, 450 mg): 1330 ng/mL
- concentration at 3 h ([2]; both, po, 450 mg): 1820 ng/mL
- concentration at 4 h ([2]; both, po, 450 mg): 2160 ng/mL
- concentration at 6 h ([2]; both, po, 450 mg): 2520 ng/mL
- concentration at 8 h ([2]; both, po, 450 mg): 2670 ng/mL
- concentration at 10 h ([2]; both, po, 450 mg): 2770 ng/mL
- concentration at 12 h ([2]; both, po, 450 mg): 2620 ng/mL
- concentration at 18 h ([2]; both, po, 450 mg): 2010 ng/mL
- concentration at 24 h ([2]; both, po, 450 mg): 1920 ng/mL
- concentration at […] ([2]; both, po, 450 mg): 0 ng/mL and 184 ng/mL and 646 ng/mL and 807 ng/mL
- half-life ([2]; both, po, 450 mg, t½ (Harmonic mean), single oral 450 mg DOV 21,947 HCl IR, N = 10): 19.8 h
- half-life ([2]; both, po, 450 mg, t½, single oral 450 mg DOV 21,947 HCl IR, arithmetic mean, N = 10): 32.6 h
- AUC(0-t) ([2]; female, po, 300 mg): 37300 ng·h/mL
- Cmax ([2]; female, po, 300 mg): 2320 ng/mL
- Tmax ([2]; female, po, 300 mg): 9.2 h
- concentration at 0 h ([2]; female, po, 300 mg): 0 ng/mL
- concentration at 0.5 h ([2]; female, po, 300 mg): 22.8 ng/mL
- concentration at 1 h ([2]; female, po, 300 mg): 188 ng/mL
- concentration at 2 h ([2]; female, po, 300 mg): 760 ng/mL
- concentration at 3 h ([2]; female, po, 300 mg): 1340 ng/mL
- concentration at 4 h ([2]; female, po, 300 mg): 1600 ng/mL
- concentration at 6 h ([2]; female, po, 300 mg): 1870 ng/mL
- concentration at 8 h ([2]; female, po, 300 mg): 2210 ng/mL
- concentration at 10 h ([2]; female, po, 300 mg): 1980 ng/mL
- concentration at 12 h ([2]; female, po, 300 mg): 1760 ng/mL
- concentration at 18 h ([2]; female, po, 300 mg): 1690 ng/mL
- concentration at 24 h ([2]; female, po, 300 mg): 1190 ng/mL
- concentration at […] ([2]; female, po, 300 mg): 0 ng/mL and 111 ng/mL and 317 ng/mL and 426 ng/mL
- half-life ([2]; female, po, 300 mg, t½ (Harmonic mean), single oral 300 mg DOV 21,947 HCl IR, N = 5): 15 h
- half-life ([2]; female, po, 300 mg, t½, single oral 300 mg DOV 21,947 HCl IR, N = 5, arithmetic mean): 15.5 h
- AUC(0-t) ([2]; female, po, 450 mg): 55300 ng·h/mL
- Cmax ([2]; female, po, 450 mg): 3360 ng/mL
- Tmax ([2]; female, po, 450 mg): 8.8 h
- concentration at 0 h ([2]; female, po, 450 mg): 0 ng/mL
- concentration at 0.5 h ([2]; female, po, 450 mg): 35.2 ng/mL
- concentration at 1 h ([2]; female, po, 450 mg): 285 ng/mL
- concentration at 2 h ([2]; female, po, 450 mg): 1030 ng/mL
